Experimental data published in PubChem BioAssay AID200 (DTP/NCI, 2004).
Values joined by “and” are separate entries in the source; they are usually repeats but may differ in a detail not shown here. Equal entries are not always repeated. Inconclusive results and toxic doses are left out.

System: B6C3F1 mice, B16 melanoma ip, median survival T/C
Experiment: NCI In Vivo Anticancer Drug Screen. Data for tumor model B16 Melanoma (intraperitoneal) in B6C3F1 mice
Conditions: endpoint: median survival time, schedule: Q01DX009 (ip), higher = longer survival
How it was run: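 Antitumor effect was judged in mice with transplanted tumors by dividing the treated group's survival measure by that of vehicle controls.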

[1] = dose: 50.0 mg/kg/injection, vehicle: saline with Tween-80
[2] = dose: 100.0 mg/kg/injection, vehicle: saline with Tween-80
[3] = dose: 200.0 mg/kg/injection, vehicle: saline with Tween-80
[4] = dose: 400.0 mg/kg/injection, vehicle: saline with Tween-80
[5] = dose: 3.12 mg/kg/injection, vehicle: saline with Tween-80
[6] = dose: 6.25 mg/kg/injection, vehicle: saline with Tween-80
[7] = dose: 12.5 mg/kg/injection, vehicle: saline with Tween-80
[8] = dose: 25.0 mg/kg/injection, vehicle: saline with Tween-80
[9] = dose: 50.0 mg/kg/injection, vehicle: Klucel (hydroxypropylcellulose) (HPC)
[10] = dose: 100.0 mg/kg/injection, vehicle: Klucel (hydroxypropylcellulose) (HPC)
[11] = dose: 12.5 mg/kg/injection, vehicle: saline
[12] = dose: 25.0 mg/kg/injection, vehicle: saline

Q: What does the source list for S=C(NCNC(=S)c1ccncc1)c1ccncc1?
A: T/C [1]: 102 % of control; T/C [2]: 91 % of control; T/C [3]: 100 % of control; T/C [4]: 104 % of control

Q: Which results are given for CCSc1ncnc2c1ncn2C1OC(CO)C(O)C1O (centres undefined)?
A: T/C [1]: 93 % of control; T/C [2]: 95 % of control

Q: Which results are given for Cc1c2cc(Cl)c3ccccc3c2c[n+]2ccccc12?
A: T/C [5]: 103 % of control; T/C [6]: 108 % of control; T/C [7]: 112 % of control; T/C [8]: 101 % of control; T/C [1]: 108 % of control

Q: With CC(C)N1C(=O)C=C(c2ccc([N+](=O)[O-])cc2)C1=O as the compound, how does the T/C [5] read?
A: Its T/C is 104 % of control.

Q: What about the T/C [6] of the same compound?
A: Its T/C is 111 % of control.

Q: And the T/C [7]?
A: Its T/C is 105 % of control.

Q: And the T/C [8]?
A: Its T/C is 105 % of control.

Q: Which T/C [2] does the source give for CN(C)CCC(O)c1c[nH]c2ccccc12 (centres undefined) here?
A: Its T/C is 98 % of control.

Q: And the T/C [3]?
A: Its T/C is 94 % of control.

Q: And the T/C [4]?
A: The T/C was 94 % of control.

Q: How did the T/C [9] turn out when COC(=O)C(CSCc1ccccc1)NC(=O)C(C)NC(=O)OCc1ccccc1 (centres undefined) was run?
A: The T/C was 97 % of control.

Q: And the T/C [10]?
A: The T/C was 90 % of control.

Q: And the T/C (dose: 200.0 mg/kg/injection, vehicle: Klucel (hydroxypropylcellulose) (HPC))?
A: Its T/C is 90 % of control.

Q: For Clc1ccc2nnnn2n1, which T/C [7] is on record?
A: Its T/C is 95 % of control.

Q: What about the T/C [8] of the same compound?
A: Its T/C is 105 % of control.

Q: And the T/C [1]?
A: Its T/C is 108 % of control and 116 % of control and 123 % of control.

Q: And the T/C [2]?
A: Its T/C is 111 % of control.

Q: What about the T/C [3] of the same compound?
A: Its T/C is 167 % of control.

Q: CCc1cc2c(cc1C(C)=O)C(C)(C)CCC2(C)C was tested. Which T/C [6] did it give?
A: The T/C was 89 % of control.

Q: What about the T/C [7] of the same compound?
A: Its T/C is 95 % of control.

Q: And the T/C [8]?
A: The T/C was 106 % of control.

Q: COC1C(O)C(C)OC(OC2C(Oc3cccc4c(O)c5c(=O)oc6ccc(C)c7c(=O)oc(c34)c5c67)OC(C)C(O)C2O)C1O (centres undefined) was tested. Which T/C [8] did it give?
A: The T/C was 170 % of control.

Q: What about the T/C [1] of the same compound?
A: The T/C was 168 % of control.

Q: What does the source list for CCCCCCCCCCCCOCCCOP(=O)([O-])OCC[N+](C)(C)C?
A: T/C (dose: 3.13 mg/kg/injection, vehicle: saline): 100 % of control; T/C (dose: 6.25 mg/kg/injection, vehicle: saline): 100 % of control; T/C [11]: 100 % of control; T/C [12]: 91 % of control

Q: With COc1cc(O)c2c(O)c3c(c4c2c1[C@]1(C4)C(C)=CCCC1(C)C)[C@H](O)[C@@]1(O)CC(=O)C(C(N)=O)=C(O)[C@@]1(O)C3=O as the compound, how does the T/C (dose: 1.56 mg/kg/injection, vehicle: saline with Tween-80) read?
A: The T/C was 90 % of control.

Q: What about the T/C [5] of the same compound?
A: The T/C was 106 % of control.

Q: And the T/C [6]?
A: The T/C was 117 % of control.

Q: CSc1nc(N)cc(NC(=O)CCl)n1 was tested. Which T/C (dose: 25.0 mg/kg/injection, vehicle: Klucel (hydroxypropylcellulose) (HPC)) did it give?
A: Its T/C is 102 % of control.

Q: What about the T/C [9] of the same compound?
A: Its T/C is 100 % of control.

Q: And the T/C [10]?
A: The T/C was 92 % of control.

Q: Which T/C [7] does the source give for CCO/C=C1\SC(=S)N(c2ccccc2C)C1=O here?
A: The T/C was 111 % of control.

Q: And the T/C [8]?
A: The T/C was 111 % of control.

Q: What about the T/C [1] of the same compound?
A: Its T/C is 108 % of control and 105 % of control.

Q: What about the T/C [2] of the same compound?
A: The T/C was 109 % of control and 116 % of control.

Q: What about the T/C [3] of the same compound?
A: The T/C was 112 % of control and 116 % of control.

Q: Which results are given for O=C(O)CNC(=O)c1ccccc1?
A: T/C (dose: 40.0 mg/kg/injection, vehicle: saline with Tween-80): 96 % of control; T/C (dose: 80.0 mg/kg/injection, vehicle: saline with Tween-80): 95 % of control

Q: What does the source list for O=C(O)C1Cc2nc[nH]c2CN1CO (centres undefined)?
A: T/C [7]: 104 % of control; T/C [8]: 102 % of control; T/C [1]: 105 % of control; T/C [2]: 109 % of control; T/C [3]: 106 % of control; T/C [4]: 104 % of control

Q: How did the T/C (dose: 1.5 mg/kg/injection, vehicle: distilled water + Tween-80) turn out when COc1ccc2c(c1)CCn1c(C)c(COC(=O)NC(C)C)c(COC(=O)NC(C)C)c1-2 was run?
A: Its T/C is 114 % of control.

Q: What about the T/C (dose: 3.0 mg/kg/injection, vehicle: distilled water + Tween-80) of the same compound?
A: The T/C was 154 % of control.

Q: And the T/C (dose: 3.12 mg/kg/injection, vehicle: distilled water + Tween-80)?
A: Its T/C is 150 % of control.

Q: What about the T/C (dose: 12.0 mg/kg/injection, vehicle: distilled water + Tween-80) of the same compound?
A: Its T/C is 163 % of control.

Q: What about the T/C (dose: 12.5 mg/kg/injection, vehicle: distilled water + Tween-80) of the same compound?
A: Its T/C is 180 % of control.

Q: Which T/C [11] does the source give for NC(Cn1ccc(=O)c(O)c1)C(=O)O (centres undefined) here?
A: The T/C was 107 % of control.

Q: What about the T/C [12] of the same compound?
A: Its T/C is 111 % of control.

Q: And the T/C (dose: 50.0 mg/kg/injection, vehicle: saline)?
A: The T/C was 101 % of control.

Q: What about the T/C (dose: 100.0 mg/kg/injection, vehicle: saline) of the same compound?
A: Its T/C is 105 % of control.

Q: What about the T/C (dose: 200.0 mg/kg/injection, vehicle: saline) of the same compound?
A: Its T/C is 105 % of control.
